Measured values: PubChem BioAssay (NCI)
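Cultured in 96-well plates, cells were exposed to test compound for 48 hours across five concentrations. The concentration for full growth arrest is given as TGI.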

How the values were obtained:
Test in all cases: inhibition of tumour cell growth, NCI panel, 48 h
[1] = tested on: 786-0 renal
[2] = tested on: A498 renal
[3] = tested on: A549 NSCLC
[4] = tested on: ACHN renal
[5] = tested on: BT-549 breast
[6] = tested on: CAKI-1 renal
[7] = tested on: CCRF-CEM leukemia
[8] = tested on: COLO 205 colon
[9] = tested on: DU-145 prostate
[10] = tested on: EKVX NSCLC
[11] = tested on: HCC-2998 colon
[12] = tested on: HCT-116 colon
[13] = tested on: HCT-15 colon
[14] = tested on: HOP-62 NSCLC
[15] = tested on: HS 578T breast
[16] = tested on: HT29 colon
[17] = tested on: IGROV1 ovarian
[18] = tested on: K-562 leukemia
[19] = tested on: KM12 colon
[20] = tested on: M14 melanoma
[21] = tested on: MCF7 breast
[22] = tested on: MDA-MB-435
[23] = tested on: MDA-N
[24] = tested on: MOLT-4 leukemia
[25] = tested on: NCI-H23 lung
[26] = tested on: NCI-H460 lung
[27] = tested on: NCI/ADR-RES ovarian
[28] = tested on: OVCAR-3 ovarian
[29] = tested on: OVCAR-4 ovarian
[30] = tested on: OVCAR-5 ovarian
[31] = tested on: PC-3 prostate
[32] = tested on: RPMI-8226 leukemia
[33] = tested on: SF-295 CNS
[34] = tested on: SF-539 CNS
[35] = tested on: SK-MEL-2 melanoma
[36] = tested on: SK-MEL-28 melanoma
[37] = tested on: SK-MEL-5 melanoma
[38] = tested on: SN12C renal
[39] = tested on: SNB-19 CNS
[40] = tested on: SNB-75 CNS
[41] = tested on: SW-620 colon
[42] = tested on: T-47D breast
[43] = tested on: TK-10 renal
[44] = tested on: U251 CNS
[45] = tested on: UACC-257 melanoma
[46] = tested on: UACC-62 melanoma
[47] = tested on: UO-31 renal
[48] = tested on: HL-60(TB) leukemia
[49] = tested on: HOP-92 NSCLC
[50] = tested on: LOX IMVI melanoma
[51] = tested on: MALME-3M melanoma
[52] = tested on: NCI-H226 lung
[53] = tested on: OVCAR-8 ovarian
[54] = tested on: RXF 393 renal
[55] = tested on: SK-OV-3 ovarian
[56] = tested on: SR leukemia

Measured: TGI

CSC1=N[C@H](c2ccccc2)CS1
not listed: [48] | [49] | [50] | [51] | [52] | [53] | [54] | [55] | [56]
> 100 µM: all other assays above

O=C(O)C(=C\c1ccc2c(c1)OCO2)/C(=C/c1ccc2c(c1)OCO2)C(=O)O
not listed: [1] | [3] | [4] | [10] | [34]
> 100 µM: all other assays above
